The assay concerns the target T1, HDAC6 (Homo sapiens, UniProt Q9UBN7).
T1 construct: Full length human recombinant HDAC6 protein was expressed in baculoviral system; made in house; host or cells: baculoviral system
T1 sequence (Q9UBN7 1-1215): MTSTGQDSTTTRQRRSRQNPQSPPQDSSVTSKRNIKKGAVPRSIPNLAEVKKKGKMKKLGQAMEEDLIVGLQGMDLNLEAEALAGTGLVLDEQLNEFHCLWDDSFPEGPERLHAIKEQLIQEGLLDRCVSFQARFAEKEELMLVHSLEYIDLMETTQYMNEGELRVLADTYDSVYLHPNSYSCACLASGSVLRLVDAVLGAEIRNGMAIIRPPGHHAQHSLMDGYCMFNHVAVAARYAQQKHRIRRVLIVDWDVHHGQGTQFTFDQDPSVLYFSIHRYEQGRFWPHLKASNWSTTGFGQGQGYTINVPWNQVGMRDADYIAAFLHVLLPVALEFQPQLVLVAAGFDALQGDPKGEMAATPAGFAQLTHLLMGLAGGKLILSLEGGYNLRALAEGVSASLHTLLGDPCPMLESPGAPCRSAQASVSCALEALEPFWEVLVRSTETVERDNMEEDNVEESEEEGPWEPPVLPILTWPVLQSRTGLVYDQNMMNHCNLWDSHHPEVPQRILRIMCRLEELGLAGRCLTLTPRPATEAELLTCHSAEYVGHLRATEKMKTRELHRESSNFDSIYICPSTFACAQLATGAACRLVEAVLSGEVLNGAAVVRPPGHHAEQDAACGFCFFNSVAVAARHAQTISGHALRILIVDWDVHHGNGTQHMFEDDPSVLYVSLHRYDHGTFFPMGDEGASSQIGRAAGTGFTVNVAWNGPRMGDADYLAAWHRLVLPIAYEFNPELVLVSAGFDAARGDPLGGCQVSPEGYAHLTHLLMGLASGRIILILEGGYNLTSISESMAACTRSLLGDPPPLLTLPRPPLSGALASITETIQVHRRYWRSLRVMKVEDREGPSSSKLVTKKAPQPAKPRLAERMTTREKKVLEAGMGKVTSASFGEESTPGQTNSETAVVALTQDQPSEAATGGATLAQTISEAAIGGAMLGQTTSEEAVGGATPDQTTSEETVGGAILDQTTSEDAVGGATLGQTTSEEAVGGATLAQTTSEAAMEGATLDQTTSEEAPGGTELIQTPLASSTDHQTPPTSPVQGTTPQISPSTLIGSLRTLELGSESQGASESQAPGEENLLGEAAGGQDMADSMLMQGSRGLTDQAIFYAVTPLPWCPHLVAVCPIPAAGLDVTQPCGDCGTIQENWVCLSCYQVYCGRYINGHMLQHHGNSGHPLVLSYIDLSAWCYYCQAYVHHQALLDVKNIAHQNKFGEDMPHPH
Put plainly: In vitro Histone Deacetylase Assay (enzymatic HDAC6 electrophoretic mobility shift assay). The assay is classed as biochemical. The following applies: full length human recombinant HDAC6, 1 nM enzyme, 2 μM peptide substrate RHKK(Ac)-NH2, 25° C.; read-out: HDAC6 activity range. The procedure, abridged:
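Deacetylation was read by microfluidic mobility shift as product/(substrate+product) peak ratio and normalised to 0% and 100% inhibition controls. Reactions used 1 nM baculovirus-expressed full-length human HDAC6 and 2 μM labelled RHKK(Ac)-NH2 in pH 7.5 HEPES buffer with 1% DMSO at 25 °C. IC50 was from 4-parameter fits of 12 concentrations.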

The values below come from patent US9630922B2, “3-spiro-7-hydroxamic acid tetralins as HDAC inhibitors” (Forma Therapeutics, Inc., priority 2015, dated 2017).

On to `COCCCN1CCCC2(CCc3cc(C(=O)NO)ccc3C2)C1=O` (single isomer, unassigned) [Compound I-188], for which the IC50 was ≤ 100 nM.
As for `O=C(NO)c1ccc2c(c1)CC[C@]1(CCN(c3ccc4nccn4c3)C1=O)C2` [Compound I-99, (R)-N-hydroxy-1′-(imidazo[1,2-a]pyridin-6-yl)-2′-oxo-3,4-dihydro-1H-spiro[naphthalene-2,3′-pyrrolidine]-6-carboxamide], the figure is ≤ 100 nM.
For the compound `CC(C)N1CC2(CCc3cc(C(=O)NO)ccc3C2)CC1=O` (single isomer, unassigned) [Compound I-208], the IC50 is ≤ 100 nM.
Take `O=C(NO)c1ccc2c(c1)CC[C@@]1(CCN(Cc3c(Cl)cccc3Cl)C1=O)C2` [Compound I-75, (S)-1′-(2,6-dichlorobenzyl)-N-hydroxy-2′-oxo-3,4-dihydro-1H-spiro[naphthalene-2,3′-pyrrolidine]-6-carboxamide]: the IC50 is 100 to 500 nM.
As for `CN1CC[C@@]2(CCc3cc(C(=O)NO)ccc3C2)C1=O` [Compound I-105, (S)-N-hydroxy-1′-methyl-2′-oxo-3,4-dihydro-1H-spiro[naphthalene-2,3′-pyrrolidine]-6-carboxamide], the figure is ≤ 100 nM.
For the compound `O=C(NO)c1ccc2c(c1)CC[C@]1(CCNC1=O)C2` [Compound I-27, (R)-N-hydroxy-2′-oxo-3,4-dihydro-1H-spiro[naphthalene-2,3′-pyrrolidine]-6-carboxamide], the IC50 was ≤ 100 nM.
As for `O=C(NO)c1ccc2c(c1)CCC1(CC(=O)N(Cc3ccccc3)C1)C2` (single isomer, unassigned) [Compound I-218], the figure is ≤ 100 nM; as for `O=C(NO)c1ccc2c(c1)CC[C@]1(CCN(Cc3ccccc3Cl)C1=O)C2` [Compound I-40, (R)-1′-(2-chlorobenzyl)-N-hydroxy-2′-oxo-3,4-dihydro-1H-spiro[naphthalene-2,3′-pyrrolidine]-6-carboxamide], ≤ 100 nM; as for `O=C(NO)c1ccc2c(c1)CC[C@@]1(CCN(Cc3ccccc3OC(F)F)C1=O)C2` [Compound I-87, (S)-1′-(2-(difluoromethoxy)benzyl)-N-hydroxy-2′-oxo-3,4-dihydro-1H-spiro[naphthalene-2,3′-pyrrolidine]-6-carboxamide], ≤ 100 nM.
On to `O=C(NO)c1ccc2c(c1)CCC1(CCN(C(=O)Nc3ccccc3)CC1)O2` [II-7, N6-hydroxy-N1′-phenylspiro[chromane-2,4′-piperidine]-1′,6-dicarboxamide], for which the IC50 was 100 to 500 nM.
With `CC(C)N1CC[C@@]2(CCc3cc(C(=O)NO)ccc3C2)C1=O` [Compound I-25, (S)-N-hydroxy-1′-isopropyl-2′-oxo-3,4-dihydro-1H-spiro[naphthalene-2,3′-pyrrolidine]-6-carboxamide] the figure was ≤ 100 nM; with `O=C(NO)c1ccc2c(c1)CC[C@]1(CCN(CC3CCC3)C1=O)C2` [Compound I-33, (R)-1′-(cyclobutylmethyl)-N-hydroxy-2′-oxo-3,4-dihydro-1H-spiro[naphthalene-2,3′-pyrrolidine]-6-carboxamide], ≤ 100 nM; with `CC(C)CN1CC[C@@]2(CCc3cc(C(=O)NO)ccc3C2)C1=O` [Compound I-160, (S)-N-hydroxy-1′-isobutyl-2′-oxo-3,4-dihydro-1H-spiro[naphthalene-2,3′-pyrrolidine]-6-carboxamide], 100 to 500 nM.
With `O=C(NO)c1ccc2c(c1)CC[C@@]1(CCN(CC3CCC3)C1=O)C2` [Compound I-61, (S)-1′-(cyclobutylmethyl)-N-hydroxy-2′-oxo-3,4-dihydro-1H-spiro[naphthalene-2,3′-pyrrolidine]-6-carboxamide] the figure was 100 to 500 nM; with `CC#CCN1CC[C@]2(CCc3cc(C(=O)NO)ccc3C2)C1=O` [Compound I-35, (R)-1′-(but-2-yn-1-yl)-N-hydroxy-2′-oxo-3,4-dihydro-1H-spiro[naphthalene-2,3′-pyrrolidine]-6-carboxamide], ≤ 100 nM; with `CCN1CC[C@@]2(CCc3cc(C(=O)NO)ccc3C2)C1=O` [Compound I-162, (S)-1′-ethyl-N-hydroxy-2′-oxo-3,4-dihydro-H-spiro[naphthalene-2,3′-pyrrolidine]-6-carboxamide], ≤ 100 nM.
Consider `CN1CCC2(CCc3cc(C(=O)NO)ccc3S2(=O)=O)C1=O` (stereo not shown) [Compound I-244, N-hydroxy-1-methyl-2-oxospiro[pyrrolidine-3,2′-thiochromane]-6′-carboxamide 1′,1′-dioxide], for which the IC50 was > 500 nM.
For the compound `O=C(NO)c1ccc2c(c1)CC[C@@]1(CCN(c3cccnc3)C1=O)C2` [Compound I-11, (S)-N-hydroxy-2′-oxo-1′-(pyridin-3-yl)-3,4-dihydro-1H-spiro[naphthalene-2,3′-pyrrolidine]-6-carboxamide], the IC50 is ≤ 100 nM.
With `Cc1ccc(N2CC[C@]3(CCc4cc(C(=O)NO)ccc4C3)C2=O)cn1` [Compound I-133, (R)-N-hydroxy-1′-(6-methylpyridin-3-yl)-2′-oxo-3,4-dihydro-1H-spiro[naphthalene-2,3′-pyrrolidine]-6-carboxamide] the figure was ≤ 100 nM; with `CC(C)N1CCCC2(CCc3cc(C(=O)NO)ccc3C2)C1=O` (single isomer, unassigned) [Compound I-191], ≤ 100 nM.
On to `Cn1c(CN2CC[C@]3(CCc4cc(C(=O)NO)ccc4C3)C2=O)nc2ccccc21` [Compound I-46, (R)-N-hydroxy-1′-((1-methyl-1H-benzo[d]imidazol-2-yl)methyl)-2′-oxo-3,4-dihydro-1H-spiro[naphthalene-2,3′-pyrrolidine]-6-carboxamide], for which the IC50 was ≤ 100 nM.
Consider `CC(C)CN1CC[C@]2(CCc3cc(C(=O)NO)ccc3C2)C1=O` [Compound I-159, (R)-N-hydroxy-1′-isobutyl-2′-oxo-3,4-dihydro-1H-spiro[naphthalene-2,3′-pyrrolidine]-6-carboxamide], for which the IC50 is ≤ 100 nM.
With `COc1ccc(N2CC[C@]3(CCc4cc(C(=O)NO)ccc4C3)C2=O)cc1F` [Compound I-90, (R)-1′-(3-fluoro-4-methoxyphenyl)-N-hydroxy-2′-oxo-3,4-dihydro-1H-spiro[naphthalene-2,3′-pyrrolidine]-6-carboxamide] the figure was ≤ 100 nM; with `CN1C[C@@]2(CCc3cc(C(=O)NO)ccc3C2)CC1=O` (single isomer, unassigned) [Compound I-201], ≤ 100 nM.
For `O=C(NO)c1ccc2c(c1)CCC1(CCN(c3nc4ccccc4[nH]3)C1=O)C2` (stereo not shown) [Compound I-5, 1′-(1H-benzo[d]imidazol-2-yl)-N-hydroxy-2′-oxo-3,4-dihydro-1H-spiro[naphthalene-2,3′-pyrrolidine]-6-carboxamide], the IC50 is ≤ 100 nM.
As for `O=C(NO)c1ccc2c(c1)CC[C@@]1(CCN(Cc3cccc(Cl)c3)C1=O)C2` [Compound I-81, (S)-1′-[(3-chlorophenyl)methyl]-N-hydroxy-2′-oxo-3,4-dihydro-1H-spiro[naphthalene-2,3′-pyrrolidine]-6-carboxamide], the IC50 was ≤ 100 nM.
With `Cc1ccncc1N1CC[C@@]2(CCc3cc(C(=O)NO)ccc3C2)C1=O` [Compound I-137, (S)-N-hydroxy-1′-(4-methylpyridin-3-yl)-2′-oxo-3,4-dihydro-1H-spiro[naphthalene-2,3′-pyrrolidine]-6-carboxamide] the figure was ≤ 100 nM; with `O=C(NO)c1ccc2c(c1)CC[C@]1(CC(=O)N(c3ccccc3)C1)C2` (single isomer, unassigned) [Compound I-203], ≤ 100 nM.
